From patent US20030162815A1, “Thiazolidinedione salt for treatment of diabetes mellitus” (priority 2003, published 2003)

Tests used:
Assay type in all cases: physicochemical
[1] = Solid state stability of the Hydrobromide (storage for 1 month, HPLC assay for final content and degradation products); settings: product of Example 3
Method: The solid state stability of the drug substance was determined by storing approximately 1.0 g of the material in a glass bottle at i) 40° C./75% Relative Humidity (RH), open exposure, for 1 month and b) at 50° C., closed, for 1 month. The material was assayed by HPLC for final content and degradation products in both cases.

[2] = Flow properties of the Hydrobromide (Hausner Ratio, bulk density vs tapped bulk density); settings: ratio between bulk density and tapped bulk density; product of Example 3
Method: The ratio between the bulk density and the tapped bulk density (Hausner Ratio) of the Hydrobromide was determined using standard methods (“Pharmaceutics—The Science of Dosage Form Design”, editor M. Aulton, 1988, published by: Churchill Livingstone).

[3] = Solubility of the Hydrobromide in water (visual, confirmed by HPLC assay of a saturated solution); settings: thermodynamic from solid, product of Example 3
Source text: The visual solubility was confirmed by an HPLC assay of a saturated solution.

Structure (SMILES): Br.CN(CCOc1ccc(CC2SC(=O)NC2=O)cc1)c1ccccn1 (stereo not drawn) [Hydrobromide, 5-[4-[2-(N-methyl-N-(2-pyridyl)amino)ethoxy]benzyl]thiazolidine-2,4-dione hydrobromide]
- Solid state stability: HPLC assay ([1]; 40° C./75% RH, open exposure): 98 % initial
- Solid state stability: degradation ([1]; 40° C./75% RH, open exposure): No significant degradation observed
- Solid state stability: HPLC assay ([1]; 50° C., closed): 98 % initial
- Solid state stability: degradation ([1]; 50° C., closed): No significant degradation observed
- Hausner Ratio [2]: 1.3
- solubility [3]: 6000 µg/mL
